Measurements: US20140378307A1, “AROMATIC PHOSPHATE ESTERS AS AGROCHEMICAL FORMULATION COMPONENT” (SYNGENTA LIMITED, priority 2011, published 2014)

Tests used:
Format in all cases: in vivo
[1] = test system: Chenopodium album (CHEAL), Abutilon theophrasti (ABUTH), Setaria viridis (SETVI), Xanthium strumarium (XANST); assay: Glasshouse weed kill, fomesafen with tricresyl phosphate, Phosflex 362, triphenyl phosphate; conditions: fomesafen 60 or 120 g/ha, 200 l/ha; Turbocharge 0.5% v/v, other adjuvants 0.2% v/v; leaf area killed; mean over two rates, three replicates, four weeds, 7, 14 and 21 days
Source text: (§1) Unless otherwise stated within a specific Example, all aromatic phosphate esters employed were initially formulated as 20% w′w emulsions containing 2% w/w Gohsenol®GLO3 (a polyvinyl alcohol, Nippon Gohsei, Hull, UK) and 2% Pluronic® PE10500 (an ethylene glycol-propylene glycol block copolymer, BASF Aktiengesellschaft, Ludwighsafen, Germany) as surfactants.
The efficacy of the aromatic phosphate esters tricresyl phosphate, Phosflex®362 (2-ethylhexyl diphenyl phosphate) and triphenyl phosphate as adjuvants were tested in a glasshouse against four weed species using the herbicide fomesafen. An agrochemical composition was prepared containing 0.5% v/v of the adjuvant Turbocharge® in a track sprayer and was applied at a volume of 200 litres per hectare. The other adjuvants were tested at a rate of 0.2% v/v. Fomesafen was applied at a rate of either 60 or 120 grams per hectare on weeds which had been grown to the 1.3 or 1.4 leaf stage. […]
(§2) Each spray test was replicated three times. The efficacy of the herbicide was assessed visually and expressed as a percentage of the leaf area killed. Samples were assessed at time periods of 7, 14 and 21 days following application. […]

[2] = test system: Chenopodium album (CHEAL), Abutilon theophrasti (ABUTH), Setaria viridis (SETVI), Xanthium strumarium (XANST); assay: Glasshouse weed kill, fomesafen with Phosflex 31L and comparison adjuvants
Source text: as §1
The efficacy of the aromatic phosphate ester Phosflex®31L (isopropylated triphenyl phosphate) as an adjuvant for the herbicide fomesafen was tested against four weed species in the glasshouse and compared to the well-known tank mix adjuvant Turbocharge® as well as to a aromatic ester lacking the a phosphate moiety, butylene glycol benzoate. An agrochemical composition was prepared containing 0.5% v/v of the adjuvant Turbocharge with the test compound in a track sprayer, and was applied at a volume of 200 litres per hectare. Fomesafen was applied at a rate of either 60 or 120 grams per hectare. The other adjuvants were applied at a rate of 0.2% v/v. Fomesafen was applied to weeds which had been grown to the 1.3 or 1.4 leaf stage. […]
as §2

[3] = test system: Polygonum convolvulus (POLCO), Brachiaria platyphylla (BRAPL), Digitaria sanguinalis (DIGSA), Ambrosia artemisiifolia (AMBAR); assay: Glasshouse weed kill, mesotrione with Phosflex 31L and comparison adjuvants; conditions: mesotrione 30 or 60 g/ha, 200 l/ha; Tween 20 0.5% v/v, other adjuvants 0.2% v/v; mean over two rates, three replicates, four weed species, three assessment timings
Source text: as §1
The efficacy of the aromatic phosphate ester Phosflex®31L (isopropylated triphenyl phosphate) as an adjuvant for the herbicide mesotrione was tested against four weed species in the glasshouse and compared to the known adjuvant Tween®20 as well as to a aromatic ester lacking the a phosphate moiety, butylene glycol benzoate. An agrochemical composition was prepared containing 0.5% v/v of the adjuvant Tween®20 with the test compound in a track sprayer, and was applied at a volume of 200 litres per hectare. The other adjuvants were tested at a rate of 0.2% v/v. Mesotrione was applied at a rate of either 30 or 60 grams per hectare to weeds which had been grown to the 1.3 or 1.4 leaf stage. The weed species were Polygonum convolvulus (POLCO), Brachiaria platyphylla (BRAPL), Digitaria sanguinalis (DIGSA) and Ambrosia artemisiifolia (AMBAR) […]

[4] = test system: Polygonum convolvulus (POLCO), Brachiaria platyphylla (BRAPL), Digitaria sanguinalis (DIGSA), Amaranthus tuberculatus (AMATU); assay: Glasshouse weed kill, mesotrione with tricresyl phosphate, Phosflex 362, triphenyl phosphate; conditions: mesotrione 60 or 120 g/ha, 200 l/ha; Turbocharge 0.5% v/v, other adjuvants 0.2% v/v; leaf area killed; mean over two rates, three replicates, four weeds, 7, 14 and 21 days
[5] = test system: Abutilon theophrasti (ABUTH), Chenopodium album (CHEAL), Digitaria sanguinalis (DIGSA), Setaria viridis (SETVI); assay: Glasshouse weed kill, nicosulfuron with Phosflex 31L and comparison adjuvants; conditions: nicosulfuron 30 or 60 g/ha, 200 l/ha; Atplus 411F 0.5% v/v, other adjuvants 0.2% v/v; leaf area killed; mean over two rates, three replicates, four weed species, 14 and 21 days
Source text: as §1
The efficacy of the aromatic phosphate ester Phosflex®31L (isopropylated triphenyl phosphate) as an adjuvant for the herbicide nicosulfuron was tested against four weed species in the glasshouse and compared to the well-known tank mix adjuvant Atplus®411F as well as to a aromatic ester lacking the a phosphate moiety, butylene glycol benzoate. An agrochemical composition was prepared containing 0.5% v/v of the adjuvant Atplus 411F with the test compound in a track sprayer, and was applied at a volume of 200 litres per hectare. The other adjuvants were used at a rate of 0.2% v/v. Nicosulfuron was applied at a rate of either 30 or 60 grams per hectare. Nicosulfuron was applied to weeds which had been grown to the 1.3 or 1.4 leaf stage. […]
(§3) Each spray test was replicated three times. The efficacy of the herbicide was assessed visually and expressed as a percentage of the leaf area killed. Samples were assessed at time periods of 14 and 21 days following application. […]

[6] = test system: Chenopodium album (CHEAL), Abutilon theophrasti (ABUTH), Setaria viridis (SETVI), Digitaria sanguinalis (DIGSA); assay: Glasshouse weed kill, nicosulfuron with tricresyl phosphate, Phosflex 362, triphenyl phosphate; conditions: four weed species; for efficacy as adjuvant for nicosulfuron (in words): adjuvant 0.2% v/v, conclusion from Table 7
Source text: as §1
The efficacy of the aromatic phosphate esters tricresyl phosphate, Phosflex®362 (2-ethylhexyl diphenyl phosphate) and triphenyl phosphate were tested in a glasshouse against four weed species using the herbicide nicosulfuron. An agrochemical composition was prepared containing 0.5% v/v of the adjuvant Atplus® 411F in a track sprayer, and was applied at a volume of 200 litres per hectare. The other adjuvants were tested at a arte of 0.2% v/v. Nicosulfuron was applied at a rate of either 30 or 60 grams of pesticide per hectare to weeds which had been grown to the 1.3 or 1.4 leaf stage. The weed species were Chenopodium album (CHEAL), Abutilon theophrasti (ABUTH), Setaria viridis (SETVI) and Digitaria sanguinalis (DIGSA).
Each spray test was replicated three times. The efficacy of the herbicide was assessed visually and expressed as a percentage of the leaf area killed. Samples were assessed at time periods of 14 and 21 days following application. The results shown in Table 7 below are mean averages over the two rates of nicosulfuron, three replicates, four weed species and the two assessment timings, and are compared to the efficacy of nicosulfuron in the absence of adjuvant and nicosulfuron in the presence of the known tank mix adjuvant Atplus®411F.

[7] = test system: Septoria tritici; conditions: S. tritici on wheat, adjuvant 0.2% v/v, conclusion from Table 2
[8] = test system: Septoria tritici; conditions: S. tritici on wheat, adjuvant 0.2% v/v, conclusion from Table 1
[9] = test system: Alopecurus myosuroides (ALOMY), Avena fatua (AVEFA), Lolium perenne (LOLPE), Setaria viridis (SETVI); assay: Glasshouse weed kill, pinoxaden with Phosflex 31L and comparison adjuvants; conditions: pinoxaden 7.5 or 15 g/ha, 200 l/ha; TEHP 0.5% v/v, other adjuvants 0.2% v/v; leaf area killed; mean over two rates, three replicates, four weed species, 14 and 21 days
Protocol: as §1
The efficacy of the aromatic phosphate ester Phosflex®31L (isopropylated triphenyl phosphate) as an adjuvant was tested in a glasshouse against four weed species using the herbicide pinoxaden. An agrochemical composition was prepared containing 0.2% v/v of the adjuvant in a track sprayer and was applied at a volume of 200 litres per hectare. Pinoxaden was applied at either 7.5 or 15 grams of pesticide per hectare on each of the weed species. The adjuvant TEHP was tested at a different rate from the other adjuvants, it being used at 0.5% v/v. The weed species and their growth stage at spraying were Alopecurus myosuroides (ALOMY; growth stage 13), Avena fatua (AVEFA; growth stage 12); Lolium perenne (LOLPE; growth stage 13), Setaria viridis (SETVI; growth stage 14).
as §3

[10] = test system: Alopecurus myosuroides (ALOMY), Avena fatua (AVEFA), Lolium perenne (LOLPE), Setaria viridis (SETVI); assay: Glasshouse weed kill, pinoxaden with tricresyl phosphate, Phosflex 362, triphenyl phosphate; conditions: pinoxaden 7.5 or 15 g/ha, 200 l/ha; TEHP 0.5% v/v, other adjuvants 0.2% v/v; leaf area killed; mean over two rates, three replicates, four weeds, 14 and 21 days
Source text: as §1
The efficacy of the aromatic phosphate esters tricresyl phosphate, Phosflex®362 (2-ethylhexyl diphenyl phosphate) and triphenyl phosphate were tested in a glasshouse against four weed species using the herbicide pinoxaden. An agrochemical composition was prepared containing 0.5% v/v of the adjuvant TEHP in a track sprayer and was applied at a volume of 200 litres per hectare. The other adjuvants were tested at a rate of 0.2% v/v. Pinoxaden was applied at either 7.5 or 15 grams per hectare on each of the weed species. The weed species and their growth stage at spraying were Alopecurus myosuroides (ALOMY; growth stage 13), Avena fatua (AVEFA; growth stage 12); Lolium perenne (LOLPE; growth stage 13), Setaria viridis (SETVI; growth stage 14).
as §3

`CS(=O)(=O)NC(=O)c1cc(Oc2ccc(C(F)(F)F)cc2Cl)ccc1[N+](=O)[O-]` [Fomesafen, fomesafen] was tested, and the “Mean percentage kill, Mean across species” value (from here on “Mean percentage kill”) [1] was 14.3% and the “Mean percentage kill” value ([2]; fomesafen 60 or 120 g/ha, 200 l/ha, Turbocharge 0.5% v/v, other adjuvants 0.2% v/v, leaf area killed, mean over two rates, three replicates, four weed species, 7, 14 and 21 days) was 37.7 C %.

With `CS(=O)(=O)c1ccc(C(=O)C2C(=O)CCCC2=O)c([N+](=O)[O-])c1` [Mesotrione, mesotrione] the “Mean percentage kill” value [3] was 47.2 B % and the “Mean percentage kill” value [4] was 34.0 A %.

`COc1cc(OC)nc(NC(=O)NS(=O)(=O)c2ncccc2C(=O)N(C)C)n1` [Nicosulfuron, nicosulfuron] was tested, and the “Mean percentage kill” value [5] was 74.9 B % and the “Mean percentage kill” value ([6]; nicosulfuron 30 or 60 g/ha, 200 l/ha, Atplus 411F 0.5% v/v, other adjuvants 0.2% v/v, leaf area killed, mean over two rates, three replicates, 14 and 21 days) was 42.5%.

With `CCCCC(CC)COP(=O)(Oc1ccccc1)Oc1ccccc1` (stereo not shown) [Phosflex®362, 2-ethylhexyl diphenyl phosphate] the “efficacy as adjuvant for cyproconazole (in words)” value [7] was “performed best as an adjuvant out of the compounds tested”, the “efficacy as adjuvant for nicosulfuron (in words)” value [6] was “performing particularly well” and the “efficacy as adjuvant for isopyrazam (in words)” value [8] was “more efficacious as an adjuvant than any of the other compounds tested”.

With `CCc1cc(C)cc(CC)c1-c1c(OC(=O)C(C)(C)C)n2n(c1=O)CCOCC2` [Pinoxaden, pinoxaden] the “Mean percentage kill” value [9] was 17.4 D % and the “Mean percentage kill” value [10] was 16.0 C %.

With `O=C(OCCCCO)c1ccccc1` [the ester lacking the phosphate moiety, butylene glycol benzoate] the “efficacy as adjuvant for fomesafen (in words)” value ([2]; four weed species, adjuvant 0.2% v/v, conclusion from Table 4) was “is not”.

With “tricresyl phosphate [tricresylphosphate]” the “efficacy as adjuvant for nicosulfuron (in words)” value [6] was “performing particularly well”.
